Results: PMC7265341, “Quantifying CDK inhibitor selectivity in live cells” (Nature Communications, 2020)
Where two headings read alike, the source gives them in different places.

Key:
CDK20/Cyclin H = CDK20/Cyclin H (Homo sapiens, UniProt Q8IZL9); experiment: NanoBRET live-cell target engagement, NanoLuc-CDK20/Cyclin H in HEK-293; format: binding; details: 10µM
CDK9/Cyclin K = CDK9/Cyclin K (Homo sapiens, UniProt P50750); experiment: NanoBRET live-cell target engagement, NanoLuc-CDK9/Cyclin K in HEK-293; format: binding; details: 10µM
CDK11B/Cyclin L2 = CDK11B/Cyclin L2 (Homo sapiens, UniProt P21127); experiment: NanoBRET live-cell target engagement, CDK11B-NanoLuc/Cyclin L2 in HEK-293; format: binding; details: 10µM
CDK16/Cyclin Y = CDK16/Cyclin Y (Homo sapiens, UniProt Q00536); experiment: NanoBRET live-cell target engagement, CDK16-NanoLuc/Cyclin Y in HEK-293; format: binding; details: 10µM
CDK17/Cyclin Y = CDK17/Cyclin Y (Homo sapiens, UniProt Q00537); experiment: NanoBRET live-cell target engagement, CDK17-NanoLuc/Cyclin Y in HEK-293; format: binding; details: 10µM
CDK11A/Cyclin L2 = molecular target: T1, CDK11A/Cyclin L2 (Homo sapiens, UniProt Q9UQ88); experiment: NanoBRET live-cell target engagement, CDK11A-NanoLuc/Cyclin L2 in HEK-293; format: binding
T1 sequence (Q9UQ88 1-783): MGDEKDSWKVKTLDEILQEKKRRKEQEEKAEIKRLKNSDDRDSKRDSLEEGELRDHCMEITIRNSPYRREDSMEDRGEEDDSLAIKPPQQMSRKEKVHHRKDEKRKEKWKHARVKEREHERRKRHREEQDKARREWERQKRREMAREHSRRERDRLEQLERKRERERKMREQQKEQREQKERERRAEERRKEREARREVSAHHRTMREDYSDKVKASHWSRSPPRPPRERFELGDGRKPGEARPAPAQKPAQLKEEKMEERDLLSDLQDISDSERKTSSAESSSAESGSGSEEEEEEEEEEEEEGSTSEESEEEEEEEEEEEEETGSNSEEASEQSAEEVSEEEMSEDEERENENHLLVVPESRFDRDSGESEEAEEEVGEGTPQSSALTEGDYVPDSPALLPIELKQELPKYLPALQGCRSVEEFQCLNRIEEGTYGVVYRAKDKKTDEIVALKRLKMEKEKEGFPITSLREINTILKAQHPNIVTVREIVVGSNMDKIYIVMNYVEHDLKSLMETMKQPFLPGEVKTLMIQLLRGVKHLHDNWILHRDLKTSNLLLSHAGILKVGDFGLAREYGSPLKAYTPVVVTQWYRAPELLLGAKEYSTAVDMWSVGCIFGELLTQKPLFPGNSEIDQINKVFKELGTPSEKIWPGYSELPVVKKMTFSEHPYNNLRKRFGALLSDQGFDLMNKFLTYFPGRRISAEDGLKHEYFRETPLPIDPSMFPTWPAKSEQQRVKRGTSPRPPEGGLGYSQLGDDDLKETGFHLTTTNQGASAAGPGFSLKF

CDK1/Cyclin E1 = CDK1/Cyclin E1 (Homo sapiens, UniProt P06493); experiment: NanoBRET live-cell target engagement, CDK1-NanoLuc/Cyclin E1 in HEK-293; format: binding; details: 10µM
CDK2/Cyclin E1 = CDK2/Cyclin E1 (Homo sapiens, UniProt P24941); experiment: NanoBRET live-cell target engagement, CDK2-NanoLuc/Cyclin E1 in HEK-293; format: binding; details: 10µM
CDK19/Cyclin C = CDK19/Cyclin C (Homo sapiens, UniProt Q9BWU1); experiment: NanoBRET live-cell target engagement, NanoLuc-CDK19/Cyclin C in HEK-293; details: 10µM
CDK6/Cyclin D1 = CDK6/Cyclin D1 (Homo sapiens, UniProt Q00534); experiment: NanoBRET live-cell target engagement, NanoLuc-CDK6/Cyclin D1 in HEK-293; format: binding; details: 10µM
CDK12/Cyclin K = CDK12/Cyclin K (Homo sapiens, UniProt Q9NYV4); experiment: NanoBRET live-cell target engagement, CDK12-NanoLuc/Cyclin K in HEK-293; format: binding
CDK5/CDK5R1 = CDK5/CDK5R1 (Homo sapiens, UniProt Q00535); experiment: NanoBRET live-cell target engagement, CDK5-NanoLuc/CDK5R1 in HEK-293; format: binding; details: 10µM
CDK4/Cyclin D1 = CDK4/Cyclin D1 (Homo sapiens, UniProt P11802); experiment: NanoBRET live-cell target engagement, NanoLuc-CDK4/Cyclin D1 in HEK-293; format: binding; details: 10µM
CDK7 = CDK7 (Homo sapiens, UniProt P50613); experiment: NanoBRET live-cell target engagement, NanoLuc-CDK7 in HEK-293; format: binding; details: 10µM
CDK18/Cyclin Y = CDK18/Cyclin Y (Homo sapiens, UniProt Q07002); experiment: NanoBRET live-cell target engagement, CDK18-NanoLuc/Cyclin Y in HEK-293; format: binding; details: 10µM
CDK13/Cyclin K = CDK13/Cyclin K (Homo sapiens, UniProt Q14004); experiment: NanoBRET live-cell target engagement, CDK13-NanoLuc/Cyclin K in HEK-293; format: binding
CDK8/Cyclin C = CDK8/Cyclin C (Homo sapiens, UniProt P49336); experiment: NanoBRET live-cell target engagement, NanoLuc-CDK8/Cyclin C in HEK-293; format: binding; details: 10µM
CDK3/Cyclin E1 = CDK3/Cyclin E1 (Homo sapiens, UniProt Q00526); experiment: NanoBRET live-cell target engagement, CDK3-NanoLuc/Cyclin E1 in HEK-293; format: binding; details: 10µM
CDK15/Cyclin Y = CDK15/Cyclin Y (Homo sapiens, UniProt Q96Q40); experiment: NanoBRET live-cell target engagement, NanoLuc-CDK15/Cyclin Y in HEK-293; format: binding; details: 10µM

CDK5/CDK5R1, sequence (Q00535 whole entry): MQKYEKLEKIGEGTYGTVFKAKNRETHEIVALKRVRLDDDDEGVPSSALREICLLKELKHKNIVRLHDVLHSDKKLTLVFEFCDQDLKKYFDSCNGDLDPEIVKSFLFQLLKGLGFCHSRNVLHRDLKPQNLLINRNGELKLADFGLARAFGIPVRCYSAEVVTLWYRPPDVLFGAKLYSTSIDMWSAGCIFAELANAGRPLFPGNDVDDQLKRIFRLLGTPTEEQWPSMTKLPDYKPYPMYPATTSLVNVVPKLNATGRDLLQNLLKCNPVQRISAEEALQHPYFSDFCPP
CDK5/CDK5R1, sequence (Q15078 whole entry partner): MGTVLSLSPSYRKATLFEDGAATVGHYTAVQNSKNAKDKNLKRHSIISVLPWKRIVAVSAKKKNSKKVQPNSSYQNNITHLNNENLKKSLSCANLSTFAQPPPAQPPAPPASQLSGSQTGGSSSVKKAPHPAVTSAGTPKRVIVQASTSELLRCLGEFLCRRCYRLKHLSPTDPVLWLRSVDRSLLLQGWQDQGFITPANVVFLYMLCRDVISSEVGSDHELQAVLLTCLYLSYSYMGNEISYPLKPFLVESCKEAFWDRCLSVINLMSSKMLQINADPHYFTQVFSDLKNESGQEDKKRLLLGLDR
CDK1/Cyclin E1, sequence (P06493 whole entry): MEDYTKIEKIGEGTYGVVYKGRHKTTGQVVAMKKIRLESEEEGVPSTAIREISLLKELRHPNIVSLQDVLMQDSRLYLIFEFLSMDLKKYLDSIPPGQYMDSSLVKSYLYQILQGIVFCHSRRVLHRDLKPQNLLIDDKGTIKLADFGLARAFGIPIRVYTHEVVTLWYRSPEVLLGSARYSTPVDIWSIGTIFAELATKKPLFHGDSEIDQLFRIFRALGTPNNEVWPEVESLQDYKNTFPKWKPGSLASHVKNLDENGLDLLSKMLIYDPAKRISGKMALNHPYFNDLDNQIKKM
CDK1/Cyclin E1, sequence (P24864 whole entry partner): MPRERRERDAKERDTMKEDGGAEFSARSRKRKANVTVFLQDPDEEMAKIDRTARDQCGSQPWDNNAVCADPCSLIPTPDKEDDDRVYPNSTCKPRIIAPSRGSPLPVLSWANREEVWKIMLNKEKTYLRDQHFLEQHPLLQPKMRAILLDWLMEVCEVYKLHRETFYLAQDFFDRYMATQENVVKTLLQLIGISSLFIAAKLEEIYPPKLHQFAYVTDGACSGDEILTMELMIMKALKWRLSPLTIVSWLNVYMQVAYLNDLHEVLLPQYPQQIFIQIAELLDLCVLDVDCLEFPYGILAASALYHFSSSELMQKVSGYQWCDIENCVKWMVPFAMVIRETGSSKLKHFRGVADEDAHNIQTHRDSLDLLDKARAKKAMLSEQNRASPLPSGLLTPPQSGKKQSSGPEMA
CDK7, sequence (P50613 whole entry): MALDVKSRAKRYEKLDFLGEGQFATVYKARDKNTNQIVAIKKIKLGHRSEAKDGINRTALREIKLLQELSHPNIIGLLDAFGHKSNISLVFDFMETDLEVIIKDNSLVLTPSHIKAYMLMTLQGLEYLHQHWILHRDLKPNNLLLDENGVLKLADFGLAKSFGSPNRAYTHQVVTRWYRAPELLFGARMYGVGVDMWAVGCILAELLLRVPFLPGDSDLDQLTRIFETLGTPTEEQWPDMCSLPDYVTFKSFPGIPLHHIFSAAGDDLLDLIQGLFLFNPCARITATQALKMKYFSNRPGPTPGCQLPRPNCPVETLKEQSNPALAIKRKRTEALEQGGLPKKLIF
CDK11B/Cyclin L2, sequence (P21127 1-782 isoform P21127-2): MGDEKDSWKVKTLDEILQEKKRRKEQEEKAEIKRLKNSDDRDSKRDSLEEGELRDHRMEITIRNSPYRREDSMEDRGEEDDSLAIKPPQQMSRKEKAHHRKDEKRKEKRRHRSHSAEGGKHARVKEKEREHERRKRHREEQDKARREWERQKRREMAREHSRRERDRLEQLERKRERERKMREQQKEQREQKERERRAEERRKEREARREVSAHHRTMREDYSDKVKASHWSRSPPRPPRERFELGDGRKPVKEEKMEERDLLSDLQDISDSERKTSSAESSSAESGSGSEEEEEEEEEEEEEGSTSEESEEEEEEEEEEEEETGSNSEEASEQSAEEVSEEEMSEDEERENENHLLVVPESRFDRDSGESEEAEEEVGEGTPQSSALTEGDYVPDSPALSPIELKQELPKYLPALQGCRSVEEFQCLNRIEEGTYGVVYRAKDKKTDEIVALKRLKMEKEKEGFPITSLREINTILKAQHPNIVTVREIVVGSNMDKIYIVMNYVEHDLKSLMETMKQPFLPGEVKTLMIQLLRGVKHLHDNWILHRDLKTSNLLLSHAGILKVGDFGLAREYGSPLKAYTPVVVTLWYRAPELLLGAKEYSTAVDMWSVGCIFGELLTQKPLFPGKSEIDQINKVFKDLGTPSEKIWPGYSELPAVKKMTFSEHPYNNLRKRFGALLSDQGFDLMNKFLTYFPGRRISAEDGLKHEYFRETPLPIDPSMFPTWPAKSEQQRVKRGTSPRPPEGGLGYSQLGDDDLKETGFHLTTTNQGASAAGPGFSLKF
CDK18/Cyclin Y, sequence (Q07002 whole entry): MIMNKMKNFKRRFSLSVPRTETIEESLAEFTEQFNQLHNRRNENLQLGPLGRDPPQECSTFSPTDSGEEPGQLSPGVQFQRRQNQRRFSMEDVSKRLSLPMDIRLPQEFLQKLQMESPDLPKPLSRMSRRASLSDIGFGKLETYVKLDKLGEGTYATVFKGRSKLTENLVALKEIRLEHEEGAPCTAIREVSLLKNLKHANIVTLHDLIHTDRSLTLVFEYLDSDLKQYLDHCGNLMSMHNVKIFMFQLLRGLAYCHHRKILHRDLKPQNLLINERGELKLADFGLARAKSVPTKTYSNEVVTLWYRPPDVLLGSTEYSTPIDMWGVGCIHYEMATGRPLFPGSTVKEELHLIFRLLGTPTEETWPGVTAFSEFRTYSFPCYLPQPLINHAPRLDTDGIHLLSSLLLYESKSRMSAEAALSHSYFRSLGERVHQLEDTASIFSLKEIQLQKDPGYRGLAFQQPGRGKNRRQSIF
CDK18/Cyclin Y, sequence (Q8ND76 whole entry partner): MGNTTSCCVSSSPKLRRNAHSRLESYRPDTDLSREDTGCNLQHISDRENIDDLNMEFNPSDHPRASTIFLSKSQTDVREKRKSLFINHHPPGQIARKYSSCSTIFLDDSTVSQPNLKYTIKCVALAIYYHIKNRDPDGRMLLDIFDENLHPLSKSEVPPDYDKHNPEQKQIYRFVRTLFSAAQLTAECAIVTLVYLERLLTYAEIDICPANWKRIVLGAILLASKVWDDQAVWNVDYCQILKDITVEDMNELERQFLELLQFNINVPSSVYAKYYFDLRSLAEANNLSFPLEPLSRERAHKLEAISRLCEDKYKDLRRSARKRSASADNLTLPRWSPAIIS
CDK17/Cyclin Y, sequence (Q00537 whole entry): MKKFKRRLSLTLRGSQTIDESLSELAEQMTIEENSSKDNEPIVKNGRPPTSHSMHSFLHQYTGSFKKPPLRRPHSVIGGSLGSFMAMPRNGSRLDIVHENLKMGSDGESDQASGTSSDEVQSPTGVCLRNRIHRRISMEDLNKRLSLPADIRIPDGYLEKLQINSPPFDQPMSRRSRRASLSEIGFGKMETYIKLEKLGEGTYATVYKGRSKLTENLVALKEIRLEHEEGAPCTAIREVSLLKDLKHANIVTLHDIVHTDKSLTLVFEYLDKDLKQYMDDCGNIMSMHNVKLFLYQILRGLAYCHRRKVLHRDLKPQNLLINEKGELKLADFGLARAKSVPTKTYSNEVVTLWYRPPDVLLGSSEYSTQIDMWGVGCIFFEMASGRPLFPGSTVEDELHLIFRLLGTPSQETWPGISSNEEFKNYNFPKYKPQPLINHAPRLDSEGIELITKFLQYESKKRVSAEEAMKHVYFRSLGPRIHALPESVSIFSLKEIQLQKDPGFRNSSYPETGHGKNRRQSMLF
CDK17/Cyclin Y, sequence (Q8ND76 whole entry partner): as the sequence (Q8ND76 whole entry partner) above
CDK19/Cyclin C, sequence (Q9BWU1 whole entry): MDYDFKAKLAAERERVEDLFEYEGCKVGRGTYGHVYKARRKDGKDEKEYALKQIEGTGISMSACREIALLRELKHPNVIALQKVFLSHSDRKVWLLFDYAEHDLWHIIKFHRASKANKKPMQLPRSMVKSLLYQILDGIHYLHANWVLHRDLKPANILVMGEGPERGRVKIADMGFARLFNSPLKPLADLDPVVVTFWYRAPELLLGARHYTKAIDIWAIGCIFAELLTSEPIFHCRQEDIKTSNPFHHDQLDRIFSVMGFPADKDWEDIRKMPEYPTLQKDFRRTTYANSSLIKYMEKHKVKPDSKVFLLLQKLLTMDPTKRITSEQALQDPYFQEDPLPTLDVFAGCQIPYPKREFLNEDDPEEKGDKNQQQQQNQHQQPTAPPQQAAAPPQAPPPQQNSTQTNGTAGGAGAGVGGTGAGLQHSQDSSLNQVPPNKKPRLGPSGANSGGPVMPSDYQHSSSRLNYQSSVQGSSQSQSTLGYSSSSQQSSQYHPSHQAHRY
CDK19/Cyclin C, sequence (P24863 whole entry partner): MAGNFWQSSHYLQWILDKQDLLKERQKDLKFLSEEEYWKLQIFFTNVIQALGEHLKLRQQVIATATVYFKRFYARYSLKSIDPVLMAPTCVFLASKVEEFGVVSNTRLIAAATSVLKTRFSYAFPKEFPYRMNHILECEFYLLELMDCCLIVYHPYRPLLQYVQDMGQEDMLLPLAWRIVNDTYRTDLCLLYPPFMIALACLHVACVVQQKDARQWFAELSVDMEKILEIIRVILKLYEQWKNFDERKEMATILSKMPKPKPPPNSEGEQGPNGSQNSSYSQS

For `CN(C)C/C=C/C(=O)Nc1ccc(C(=O)Nc2cccc(Nc3ncc(Cl)c(-c4c[nH]c5ccccc45)n3)c2)cc1` [THZ1], the “CDK20/H Inhibition at 10µM (%)” value (CDK20/Cyclin H; independent experiment 1) was 63.8%, the “CDK20/H Inhibition at 10µM (%)” value (CDK20/Cyclin H; independent experiment 2) was 90.1% and the “CDK9/K Inhibition at 10µM (%)” value (CDK9/Cyclin K; average of experiments) was 70.0%. For the same compound, the “CDK9/K Inhibition at 10µM (%)” value (CDK9/Cyclin K; independent experiment 1) was 44.1%, the “CDK9/K Inhibition at 10µM (%)” value (CDK9/Cyclin K; independent experiment 2) was 96.0% and the “CDK11b/L2 Inhibition at 10µM (%)” value (CDK11B/Cyclin L2; average of experiments) was 34.5%. The “CDK11b/L2 Inhibition at 10µM (%)” value (CDK11B/Cyclin L2; independent experiment 1) was 13.3%, the “CDK11b/L2 Inhibition at 10µM (%)” value (CDK11B/Cyclin L2; independent experiment 2) was 55.7% and the “CDK16/Y Inhibition at 10µM (%)” value (CDK16/Cyclin Y; independent experiment 1) was 74.4%. The “CDK16/Y Inhibition at 10µM (%)” value (CDK16/Cyclin Y; independent experiment 2) was 11.2%, the “CDK17/Y Inhibition at 10µM (%)” value (CDK17/Cyclin Y; average of experiments) was 50.4% and the “CDK17/Y Inhibition at 10µM (%)” value (CDK17/Cyclin Y; independent experiment 1) was 73.0%. For the same compound, the “CDK17/Y Inhibition at 10µM (%)” value (CDK17/Cyclin Y; independent experiment 2) was 27.8%, the “CDK11a/L2 Inhibition at 10µM (%)” value (CDK11A/Cyclin L2; average of experiments) was 42.5% and the “CDK11a/L2 Inhibition at 10µM (%)” value (CDK11A/Cyclin L2; independent experiment 1) was 8.0%. The “CDK11a/L2 Inhibition at 10µM (%)” value (CDK11A/Cyclin L2; independent experiment 2) was 77.1%, the IC50 (CDK11A/Cyclin L2; independent experiment 1, read-out: CDK11a/L2 IC50) was 450 nM and the IC50 (CDK11A/Cyclin L2; independent experiment 2, read-out: CDK11a/L2 IC50) was 230 nM. For the same compound, the IC50 (CDK11A/Cyclin L2; independent experiment 3, read-out: CDK11a/L2 IC50) was 218 nM, the IC50 (CDK11A/Cyclin L2; live HEK-293, 2 h, mean ± S.E.M. (n=3) or mean (n=2), read-out: IC50 for CDK/cyclin complexes, CDK11a/L2) was 300 nM and the “CDK1/E1 Inhibition at 10µM (%)” value (CDK1/Cyclin E1; average of experiments) was 91.9%. The “CDK1/E1 Inhibition at 10µM (%)” value (CDK1/Cyclin E1; independent experiment 1) was 87.2%, the “CDK1/E1 Inhibition at 10µM (%)” value (CDK1/Cyclin E1; independent experiment 2) was 96.6% and the “CDK2/E1 Inhibition at 10µM (%)” value (CDK2/Cyclin E1; average of experiments) was 16.1%. The “CDK2/E1 Inhibition at 10µM (%)” value (CDK2/Cyclin E1; independent experiment 1) was 27.6%, the “CDK2/E1 Inhibition at 10µM (%)” value (CDK2/Cyclin E1; independent experiment 2) was 4.6% and the “CDK19/C Inhibition at 10µM (%)” value (CDK19/Cyclin C; average of experiments) was 66.6%. For the same compound, the “CDK19/C Inhibition at 10µM (%)” value (CDK19/Cyclin C; independent experiment 1) was 44.1%, the “CDK19/C Inhibition at 10µM (%)” value (CDK19/Cyclin C; independent experiment 2) was 89.1% and the “CDK6/D1 Inhibition at 10µM (%)” value (CDK6/Cyclin D1; average of experiments) was 73.8%. For the same compound, the “CDK6/D1 Inhibition at 10µM (%)” value (CDK6/Cyclin D1; independent experiment 1) was 53.8%, the “CDK6/D1 Inhibition at 10µM (%)” value (CDK6/Cyclin D1; independent experiment 2) was 93.8% and the “CDK12/K Inhibition at 10µM (%)” value (CDK12/Cyclin K; average of experiments) was 45.5%. For the same compound, the “CDK12/K Inhibition at 10µM (%)” value (CDK12/Cyclin K; independent experiment 1) was 26.4%, the “CDK12/K Inhibition at 10µM (%)” value (CDK12/Cyclin K; independent experiment 2) was 64.6% and the “CDK12 occupancy at 10 µM” value (CDK12/Cyclin K; primary screen, live HEK-293) was about 50%. For the same compound, the “CDK5/CDK5R1 Inhibition at 10µM (%)” value (CDK5/CDK5R1; average of experiments) was 42.5%, the “CDK5/CDK5R1 Inhibition at 10µM (%)” value (CDK5/CDK5R1; independent experiment 1) was 19.2% and the “CDK5/CDK5R1 Inhibition at 10µM (%)” value (CDK5/CDK5R1; independent experiment 2) was 65.8%. For the same compound, the “CDK4/D1 Inhibition at 10µM (%)” value (CDK4/Cyclin D1; average of experiments) was 53.8%, the “CDK4/D1 Inhibition at 10µM (%)” value (CDK4/Cyclin D1; independent experiment 1) was 13.3% and the “CDK4/D1 Inhibition at 10µM (%)” value (CDK4/Cyclin D1; independent experiment 2) was 94.2%. The “CDK7 Inhibition at 10µM (%)” value (CDK7; average of experiments) was 83.9%, the “CDK7 Inhibition at 10µM (%)” value (CDK7; independent experiment 1) was 70.6% and the “CDK7 Inhibition at 10µM (%)” value (CDK7; independent experiment 2) was 97.1%. The “CDK18/Y Inhibition at 10µM (%)” value (CDK18/Cyclin Y; average of experiments) was 48.6%, the “CDK18/Y Inhibition at 10µM (%)” value (CDK18/Cyclin Y; independent experiment 1) was 73.0% and the “CDK18/Y Inhibition at 10µM (%)” value (CDK18/Cyclin Y; independent experiment 2) was 24.3%. For the same compound, the “CDK13/K Inhibition at 10µM (%)” value (CDK13/Cyclin K; average of experiments) was 48.1%, the “CDK13/K Inhibition at 10µM (%)” value (CDK13/Cyclin K; independent experiment 1) was 34.3% and the “CDK13/K Inhibition at 10µM (%)” value (CDK13/Cyclin K; independent experiment 2) was 62.0%. The “CDK13 occupancy at 10 µM” value (CDK13/Cyclin K; primary screen, live HEK-293) was about 50%, the “CDK8/C Inhibition at 10µM (%)” value (CDK8/Cyclin C; average of experiments) was 62.9% and the “CDK8/C Inhibition at 10µM (%)” value (CDK8/Cyclin C; independent experiment 1) was 34.6%. For the same compound, the “CDK8/C Inhibition at 10µM (%)” value (CDK8/Cyclin C; independent experiment 2) was 91.2%, the “CDK3/E1 Inhibition at 10µM (%)” value (CDK3/Cyclin E1; average of experiments) was 55.0% and the “CDK3/E1 Inhibition at 10µM (%)” value (CDK3/Cyclin E1; independent experiment 1) was 14.7%. For the same compound, the “CDK3/E1 Inhibition at 10µM (%)” value (CDK3/Cyclin E1; independent experiment 2) was 95.2%, the “CDK15/Y Inhibition at 10µM (%)” value (CDK15/Cyclin Y; average of experiments) was 64.9% and the “CDK15/Y Inhibition at 10µM (%)” value (CDK15/Cyclin Y; independent experiment 1) was 40.7%. For the same compound, the “CDK15/Y Inhibition at 10µM (%)” value (CDK15/Cyclin Y; independent experiment 2) was 89.2%.
